# Source: patent US5512553A, “7-(substituted)-8-(substituted)-9-(substituted amino)-6-demethyl-6-deoxytetracyclines” (American Cyanamid Company, priority 1995, dated 1996)
# Structures can show the parent of a compound that is named as a salt. Where two headings read alike, the source gives them in different places.
# Experiments:
# [1] = test system: Staphylococcus aureus strain Smith (tetracycline sensitive); assay: In vivo antibacterial evaluation, acute lethal infection in mice; conditions: 168 h, female mice CD-1, intraperitoneal challenge with S. aureus Smith, dosed subcutaneously or orally 30 minutes after infection, 7 day survival ratios
# Procedure: In Vivo Antibacterial Evaluation (Table III)
# The therapeutic effects of tetracyclines are determined against an acute lethal infection with Staphylococcus aureus strain Smith (tetracycline sensitive). Female, mice, strain CD-1 (Charles River Laboratories), 20±2 grams, are challenged by an intraperitoneal injection of sufficient bacteria (suspended in hog mucin) to kill non-treated controls within 24-48 hours. Antibacterial agents, contained in 0.5 ml of 0.2% aqueous agar, are administered subcutaneously or orally 30 minutes after infection. When an oral dosing schedule is used, animals are deprived of food for 5 hours before and 2 hours after infection. Five mice are treated at each dose level. The 7 day survival ratios from 3 separate tests are pooled for calculation of median effective dose (ED50).
# [2] = test system: E. coli UBMS 89-1 (tetM); assay: microbe, parasite or virus in culture; type: cell-based; conditions: Escherichia coli, 18 h
# Procedure: (§1) Method for In Vitro Antibacterial Evaluation (Table I)
# (§2) The minimum inhibitory concentration (MIC), the lowest concentration of the antibiotic which inhibits growth of the test organism, is determined by the agar dilution method using Muller-Hinton II agar (Baltimore Biological Laboratories). An inoculum density of 1-5×10^5 CFU/ml and an antibiotic concentration (32-≤0.015 μg/ml) is used. The plates are incubated for 18 hours at 35° C. in a forced air incubator. The test organisms comprise strains sensitive to tetracycline and genetically defined strains that are resistant to tetracycline, due to inability to bind bacterial ribosomes (tetM).
# [3] = test system: S. aureus UBMS 90-1 (tetM); assay: microbe, parasite or virus in culture; type: cell-based; conditions: Staphylococcus aureus, 18 h
# Procedure: as §1, §2
# [4] = test system: S. aureus UBMS 88-5 (tetM); assay: microbe, parasite or virus in culture; type: cell-based; conditions: Staphylococcus aureus, 18 h
# Procedure: as §1, §2
# [5] = test system: S. aureus UBMS 88-7 (tetK); assay: microbe, parasite or virus in culture; type: cell-based; conditions: Staphylococcus aureus, 18 h
# Procedure: as §1, §2
# [6] = test system: E. coli UBMS 88-1 (tetB); assay: microbe, parasite or virus in culture; type: cell-based; conditions: Escherichia coli, 18 h
# Procedure: as §1, §2
# [7] = test system: S. aureus UBMS 90-2 (tetM); assay: microbe, parasite or virus in culture; type: cell-based; conditions: Staphylococcus aureus, 18 h
# Procedure: as §1, §2
# [8] = test system: S. aureus IVES 1983 (MP) (meth. resistant); assay: In vitro antibacterial evaluation, MIC by agar dilution; type: cell-based; conditions: Staphylococcus aureus
# Procedure: as §1, §2
# [9] = test system: S. aureus SMITH (MP) (sensitive); assay: as above; type: cell-based; conditions: Staphylococcus aureus
# Procedure: as §1, §2
# [10] = test system: Enteroc. spp. 12201; assay: as above; type: cell-based
# Procedure: as §1, §2
# [11] = test system: E. coli ATCC 25922; assay: as above; type: cell-based; conditions: Escherichia coli
# Procedure: as §1, §2
# [12] = test system: E. coli UBMS 89-2 (sensitive); assay: as above; type: cell-based; conditions: Escherichia coli, Muller-Hinton II agar, 18 hours at 35° C.
# Procedure: as §1, §2
# [13] = test system: S. haemol. AVAH 88-3; assay: as above; type: cell-based
# Procedure: as §1, §2
# [14] = test system: S. faecal. ATCC 29212; assay: as above; type: cell-based
# Procedure: as §1, §2
# [15] = test system: S. aureus ATCC 29213 (sensitive); assay: as above; type: cell-based; conditions: Staphylococcus aureus
# Procedure: as §1, §2
# [16] = test system: S. aureus UBMS 90-3 (sensitive); assay: as above; type: cell-based; conditions: Staphylococcus aureus
# Procedure: as §1, §2
# [17] = test system: S. aureus UBMS 88-4 (sensitive); assay: as above; type: cell-based; conditions: Staphylococcus aureus
# Procedure: as §1, §2
# [18] = test system: S. aureus IVES 2943 (meth. resistant); assay: as above; type: cell-based; conditions: Staphylococcus aureus, 18 h
# Procedure: as §1, §2
# [19] = test system: E. coli UBMS 88-2 (sensitive); assay: as above; type: cell-based; conditions: Escherichia coli
# Procedure: as §1, §2
# [20] = test system: S30 extract from derivative of E. coli MRE 600 containing the tetM determinant; assay: E. coli in vitro cell free protein translation system, TetM S30; type: biochemical; conditions: for % Inhibition TetM S30: 35S-methionine incorporation, 30 minutes at 37° C.
# Description: (§3) E. coli in Vitro protein Translation System (Table II)
# (§4) An in vitro, cell free, protein translation system using extracts from E. coli strain MRE 600 (tetracycline sensitive) and a derivative of MRE 600 containing the tetM determinant has been developed based on literature methods J. M. Pratt, Coupled Transcription-translation in Prokaryotic Cell-free Systems, Transcription and Translation, a Practical Approach, (B. D. Hames and S. J. Higgins, eds) p. 179-209, IRL Press, Oxford-Washington, 1984!.
# (§5) Using the system described above, the tetracycline compounds of the present invention are tested for their ability to inhibit protein synthesis in vitro. Briefly, each 10 μl reaction contains S30 extract (a whole extract) made from either tetracycline sensitive cells or an isogenic tetracycline resistant (tetM) strain, low molecular weight components necessary for transcription and translation (i.e., ATP and GTP), a mix of 19 amino acids (no methionine), ^35 S labeled methionine, DNA template (either pBR322 or pUC119), and either DMSO (control) or the novel tetracycline compound to be tested ("novel TC") dissolved in DMSO.
# (§6) The reactions are incubated for 30 minutes at 37° C. Timing is initiated with the addition of the S30 extract, the last component to be added. After 30 minutes, 2.5 μl of the reaction is removed and mixed with 0.5 ml of 1N NaOH to destroy RNA and tRNA. Two to three ml of 25% trichloroacetic acid is added and the mixture incubated at room temperature for 15 minutes. The trichloroacetic acid precipitated material is collected on Whatman GF/C filters and washed with a solution of 10% trichloroacetic acid. The filters are dried and the retained radioactivity, representing incorporation of ^35 S-methionine into polypeptides, is counted using standard liquid scintillation methods.
# (§7) The percent inhibition (P.I.) of protein synthesis is determined to be: [formula]
# [21] = test system: S30 extract from E. coli strain MRE 600 (tetracycline sensitive); assay: E. coli in vitro cell free protein translation system, Wild Type S30; type: biochemical; conditions: for % Inhibition Wild Type S30: 35S-methionine incorporation, 30 minutes at 37° C.
# Description: as §3, §4, §5, §6, §7
# [22] = agar dilution, Muller-Hinton II agar, 18 hours at 35° C., S. aureus SMITH (MP) (sensitive), read-out: MIC
# [23] = ATCC25922, agar dilution, Muller-Hinton II agar, 18 hours at 35° C., E. coli ATCC 25922, read-out: MIC
# [24] = agar dilution, Muller-Hinton II agar, 18 hours at 35° C., S. haemol. AVAH 88-3, read-out: MIC
# [25] = ATCC29213, agar dilution, Muller-Hinton II agar, 18 hours at 35° C., S. aureus ATCC 29213 (sensitive), read-out: MIC
# [26] = agar dilution, Muller-Hinton II agar, 18 hours at 35° C., E. coli UBMS 88-2 (sensitive), read-out: MIC
# [27] = agar dilution, Muller-Hinton II agar, 18 hours at 35° C., S. faecal. ATCC 29212, read-out: MIC
SMILES,ED50 [1],MIC [2],MIC [3],MIC [4],MIC [5],MIC [6],MIC [7],MIC ([8]; 18 h),MIC ([10]; 18 h),MIC [12],MIC ([14]; 18 h),"MIC [15, 25]",MIC ([16]; 18 h),MIC [18],MIC ([9]; 18 h),"MIC ([11]; ATCC25922, 18 h)",MIC ([13]; 18 h),MIC ([17]; 18 h),MIC ([19]; 18 h),also measured
CN(C)[C@@H]1C(O)=C(C(N)=O)C(=O)[C@@]2(O)C(O)=C3C(=O)c4c(cc(Cl)c(NC=O)c4O)CC3CC12 (stereo partly shown) [A HCL],4 to 8 mg/kg,–,–,–,–,–,–,–,–,–,–,–,–,–,–,–,–,–,–,–
"CN(C)[C@@H]1C(O)=C(C(N)=O)C(=O)[C@@]2(O)C(O)=C3C(=O)c4c(O)cc(Cl)c(N)c4CC3CC12 (stereo partly shown) [Compound C, 7-Amino-8-chloro-4-(dimethylamino)-1,4-4a,5,5a,6,11,12a-octahydro-3,10,12,12a-tetrahydroxy-1,11-dioxo-2-naphthacenecarboxamide hydrochloride]",–,32 mg/L,32 mg/L,32 mg/L,> 32 mg/L,> 32 mg/L,8 mg/L,> 32 mg/L,32 mg/L,4 mg/L,8 mg/L,0.12 mg/L,0.12 mg/L,> 32 mg/L,–,–,–,–,–,"MIC [9, 22]: 0.25 mg/L; MIC [11, 23]: 2 mg/L; MIC [13, 24]: 1 mg/L; MIC ([17]; agar dilution, Muller-Hinton II agar, 18 hours at 35° C., S. aureus UBMS 88-4 (sensitive), read-out: MIC): 0.5 mg/L; MIC [19, 26]: 2 mg/L"
"CN(C)c1c(Cl)c(NC=O)c(O)c2c1CC1CC3C(N(C)C)C(O)=C(C(N)=O)C(=O)C3(O)C(O)=C1C2=O.O=S(=O)(O)O (stereo not shown) [F, 8-Chloro-4,7-bis(dimethylamino)-9-(formylamino)-1,4,4a,5,5a,6,11,12a-octahydro-3,10,12,12a-tetrahydroxy-1,11-dioxo-2-naphthacenecarboxamide sulfate]",–,0.5 mg/L,0.5 mg/L,0.25 mg/L,4 mg/L,> 32 mg/L,0.12 mg/L,8 mg/L,0.5 mg/L,1 mg/L,0.06 mg/L,–,0.06 mg/L,8 mg/L,0.06 mg/L,0.25 mg/L,0.12 mg/L,0.12 mg/L,1 mg/L,"MIC ([15]; ATCC29213, 18 h): 0.06 mg/L"
"CN(C)c1c(Cl)c(N)c(O)c2c1CC1CC3[C@H](N(C)C)C(O)=C(C(N)=O)C(=O)[C@@]3(O)C(O)=C1C2=O (stereo partly shown) [H, 9-Amino-8-chloro-4,7-(dimethylamino)-1,4-4a,5,5a,6,11,12a-octahydro-3,10,12,12a-tetrahydroxy-1,11-dioxo-2-naphthacenecarboxamide sulfate]",4 to 8 mg/kg,–,2 mg/L,1 mg/L,0.25 mg/L,> 32 mg/L,0.5 mg/L,4 mg/L,4 mg/L,16 mg/L,–,< 0.015 mg/L,0.12 mg/L,1 mg/L,0.06 mg/L,4 mg/L,0.12 mg/L,0.12 mg/L,–,"MIC [14, 27]: 0.5 mg/L; MIC [19, 26]: 8 mg/L; % Inhibition TetM S30 ([20]; Conc. 0.1 mg/ml): 19%; % Inhibition TetM S30 ([20]; Conc. 0.3 mg/ml): 21%; % Inhibition TetM S30 ([20]; Conc. 1.0 mg/ml): 29%; % Inhibition Wild Type S30 ([21]; Conc. 0.1 mg/ml): 52%; % Inhibition Wild Type S30 ([21]; Conc. 0.3 mg/ml): 62%; % Inhibition Wild Type S30 ([21]; Conc. 1.0 mg/ml): 57%"
"CN(C)[C@@H]1C(O)=C(C(N)=O)C(=O)[C@@]2(O)C(O)=C3C(=O)c4c(cc(Cl)c(NN)c4O)CC3CC12 (stereo partly drawn) [J, 4S-(4alpha, 12aalpha)!-8-Chloro-4-(dimethylamino)-9-hydrazino-1,4,4a,5,5a,6-11,12a-octahydro-3,10,12,12a-tetrahydroxy-1,11-dioxo-2-naphthacenecarboxamide monohydrochloride]",> 16 mg/kg,16 mg/L,0.5 mg/L,0.5 mg/L,1 mg/L,32 mg/L,0.5 mg/L,–,–,4 mg/L,–,≤ 0.015 mg/L,–,–,–,–,–,0.06 mg/L,2 mg/L,"MIC ([8]; agar dilution, Muller-Hinton II agar, 18 hours at 35° C., S. aureus IVES 1983 (MP) (meth. resistant), read-out: MIC): 2 mg/L; MIC [9, 22]: 0.03 mg/L; MIC ([10]; agar dilution, Muller-Hinton II agar, 18 hours at 35° C., Enteroc. spp. 12201, read-out: MIC): 0.05 mg/L; MIC [11, 23]: 1 mg/L; MIC [13, 24]: 0.25 mg/L; MIC [14, 27]: 0.5 mg/L; MIC ([16]; agar dilution, Muller-Hinton II agar, 18 hours at 35° C., S. aureus UBMS 90-3 (sensitive), read-out: MIC): 0.03 mg/L"
"CN(C)[C@@H]1C(=O)C(C(N)=O)=C(O)[C@@]2(O)C(=O)C3=C(O)c4c(O)cccc4[C@@](C)(O)[C@H]3C[C@@H]12 [K, Tetracycline hydrochloride, reference compound]",–,16 mg/L,> 32 mg/L,> 32 mg/L,> 32 mg/L,> 32 mg/L,32 mg/L,> 32 mg/L,32 mg/L,1 mg/L,16 mg/L,–,0.06 mg/L,> 32 mg/L,0.06 mg/L,0.5 mg/L,1 mg/L,0.12 mg/L,0.25 mg/L,"MIC ([15]; ATCC29213, 18 h): ≤ 0.015 mg/L; inhibition of protein synthesis, in words ([20]; cell-free extracts from strain MRE600 (tetM)): resistant; inhibition of protein synthesis, in words ([21]; cell-free extracts from tetracycline susceptible strain MRE600): inhibited"
CCN(CC)c1c(Cl)c(N)c(O)c2c1CC1CC3[C@H](N(C)C)C(O)=C(C(N)=O)C(=O)[C@@]3(O)C(O)=C1C2=O (stereo partly shown) [M],> 16 mg/kg,–,–,–,–,–,–,–,–,–,–,–,–,–,–,–,–,–,–,–
